# Experimental data reported in patent US8497278B2, “Imidazo[1,2-a]pyridine compounds” (priority 2008, dated 2013).
# Key:
# Swiss Webster (CFW) mice = assay: Four Plate Test (FPT); type: in vivo; conditions: mouse, 30 min before test, 2 min session
# Excerpt: Four Plate Test (FPT) Protocol: The four plate test (FPT) is an animal model of anxiety in which simple ongoing behavior (exploration of novel surroundings) is suppressed by the delivery of mild electric foot-shock contingent to quadrant crossing (Aron, et al., 1971). Clinically effective classes of anxiolytic compounds such as benzodiazepines, selective serotonin reuptake inhibitors, or 5-HT1A receptor agonists produce a marked anti-punishment effect (an increase in punished crossings), which is thought to indicate anxiolytic activity (Aron, et al., 1971; Bourin, et al., 1992; Hascoet, et al., 2000; Ring, et al., 2006). The four plate apparatus (Bioseb, Chaville France) consists of a cage (18×25×16 cm) floored by four identical rectangular metal plates (8×11 cm) separated from one another by a gap of 4 mm. The plates are connected to a shocker unit that can generate electric foot shocks.
# Male Swiss Webster (CFW) mice from Charles River (Wilmington, Mass.) were used for the FPT. Mice were received at 3-weeks of age. Upon receipt, mice were assigned unique identification numbers (tail marked) and were group housed with 4 mice per cage in mouse ventilated racks. All animals remained housed in groups of four during the remainder of the study. All mice were acclimated to the colony room for at least one week prior to testing and were subsequently tested at an average age of 4 weeks of age. During the period of acclimation, mice […] were examined on a regular basis, handled, and weighed to assure adequate healtH, D and suitability. Animals were maintained on a 12/12 light/dark cycle. The room temperature was maintained between 20 and 23° C. with a relative humidity maintained between 30% and 70%. Chow and water were provided ad libitum for the duration of the study. In each test, animals were randomly assigned across treatment groups. Alprazolam (0.3 mg/kg) was used as the positive control. Compounds of the present invention, vehicle (45% hydroxypropyl beta-cyclodextrin) and alprazolam were administered orally to all groups (n=10 mice per group) 30 minutes prior to behavioral testing. Following pretreatment, mice were gently placed in the four plate chamber and allowed to explore the enclosure for 18 seconds. After the exploration period, every time the mouse crossed from one plate to another, the experimenter, blind to the dosing conditions, administered a mild electric foot-shock, and referred to as a punished crossing. The intensity and duration of the foot-shock were 0.5 mA for 0.5 seconds. The number of punished crossings was recorded during the 2 min test session. The plates were thoroughly cleaned with 70% ethanol immediately after each mouse. All data were analyzed using an analysis of variance (ANOVA) followed by Fisher's PLSD post hoc test. An effect was considered significance if p<0.05. Statistical outliers above or below 2 standard deviations from the mean in any of the […] were removed from the final analysis.
# Wistar rats = assay: Vogel conflict test; type: in vivo; conditions: rat, 60 min before test, 3 minute test
# Method: Vogel Conflict Test Protocol: The Vogel conflict test is an animal model of anxiety described by Vogel et al. (1971). In this test, water deprived animals are placed in a cage with free access to a drinking bottle. Whenever the animal drinks, an electric shock is administered. Animals punished during drinking rapidly cease to drink. Anxiolytic drugs decrease the effect of punishment and increase the number of shocks accepted by the rats in this conflict situation. Male Wistar rats were used in these studies. Rats were deprived of water for approximately 48 hours and then placed individually into a transparent Plexiglas enclosure with a floor consisting of stainless steel bars spaced 1 cm apart. The back wall of the enclosure was made of opaque Plexiglas thereby concealing the observer from the experimental animal. In the center of the opposite wall, 5 cm above the floor, a metal water spout protruded into the cage and was connected to one pole of a shock generator. The other pole of the shock generator was connected to the metal grid floor. The rat is left to explore until it finds the water spout. Then, every time it drinks, it receives an electric shock (1.7 mA, 1 sec duration) 2 seconds after it starts drinking The number of punished drinks is counted during a 3 minute test. Ten rats are studied per treatment group. Clobazam (64 mg/kg) was used as the positive control. Compounds of the present invention, vehicle (45% hydroxypropyl beta-cyclodextrin) and clobazam were administered orally to all groups (n=10 […] per group) 60 minutes prior to behavioral testing. All data were analyzed using unpaired Student's t-tests. An effect was considered significance if p<0.05.
# [1] = molecular target: T1, α2 subtype containing GABA-A receptors (Homo sapiens, UniProt P18507+P47869); assay: Two-electrode voltage clamp electrophysiology in Xenopus oocytes, potentiation of GABA EC20 response, α2; type: cell-based; conditions: 100 nM compound; for activation at 0.1 µM: read-out: Percentage of potentiation alpha2
# T1 construct: expressed in transfected cells; host or cells: Xenopus laevis oocytes, cRNA injected
# Procedure, shortened: (§1)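 Compounds are tested at 100 nM, one per oocyte, against an EC20 GABA (60 μM) response in human α1-, α2-, α3- or α5-β3-γ2L receptors clamped at −80 mV. Oocytes showing rapid desensitization or weak chlordiazepoxide (1 μM) potentiation are excluded.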
# [2] = molecular target: T2, α1 subtype containing GABA-A receptors (Homo sapiens, UniProt P14867+P18507); assay: Two-electrode voltage clamp electrophysiology in Xenopus oocytes, potentiation of GABA EC20 response, α1; type: cell-based; conditions: 100 nM compound; for activation at 0.1 µM: read-out: Percentage of potentiation alpha1
# T2 construct: expressed in transfected cells; host or cells: Xenopus laevis oocytes, cRNA injected
# Procedure, shortened: as §1
# T2 sequence (P14867 28-456): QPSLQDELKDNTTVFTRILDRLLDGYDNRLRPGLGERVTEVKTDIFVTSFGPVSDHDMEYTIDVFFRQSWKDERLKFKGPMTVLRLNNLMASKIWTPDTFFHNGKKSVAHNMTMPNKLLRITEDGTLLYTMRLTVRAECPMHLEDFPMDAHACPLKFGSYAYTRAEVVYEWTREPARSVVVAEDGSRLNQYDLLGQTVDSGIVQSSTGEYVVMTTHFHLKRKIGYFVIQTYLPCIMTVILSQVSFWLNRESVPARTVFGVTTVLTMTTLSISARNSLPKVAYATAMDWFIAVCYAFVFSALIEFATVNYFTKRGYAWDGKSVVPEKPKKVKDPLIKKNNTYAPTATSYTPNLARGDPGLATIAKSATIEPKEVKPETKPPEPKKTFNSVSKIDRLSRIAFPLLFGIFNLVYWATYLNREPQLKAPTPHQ
# T2 sequence (P28472 26-473 partner): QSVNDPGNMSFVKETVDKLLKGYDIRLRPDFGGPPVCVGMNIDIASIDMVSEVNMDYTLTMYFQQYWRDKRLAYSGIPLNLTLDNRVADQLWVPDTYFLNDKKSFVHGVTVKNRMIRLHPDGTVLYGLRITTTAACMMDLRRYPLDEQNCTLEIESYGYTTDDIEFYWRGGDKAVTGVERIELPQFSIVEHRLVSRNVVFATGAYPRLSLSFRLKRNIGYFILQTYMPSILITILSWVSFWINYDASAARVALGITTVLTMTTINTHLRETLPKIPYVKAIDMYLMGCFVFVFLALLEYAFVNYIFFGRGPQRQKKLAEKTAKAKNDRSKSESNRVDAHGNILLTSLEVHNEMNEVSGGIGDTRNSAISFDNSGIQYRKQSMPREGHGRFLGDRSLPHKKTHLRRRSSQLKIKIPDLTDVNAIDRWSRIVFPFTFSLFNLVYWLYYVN
# T2 sequence (P18507 40-475): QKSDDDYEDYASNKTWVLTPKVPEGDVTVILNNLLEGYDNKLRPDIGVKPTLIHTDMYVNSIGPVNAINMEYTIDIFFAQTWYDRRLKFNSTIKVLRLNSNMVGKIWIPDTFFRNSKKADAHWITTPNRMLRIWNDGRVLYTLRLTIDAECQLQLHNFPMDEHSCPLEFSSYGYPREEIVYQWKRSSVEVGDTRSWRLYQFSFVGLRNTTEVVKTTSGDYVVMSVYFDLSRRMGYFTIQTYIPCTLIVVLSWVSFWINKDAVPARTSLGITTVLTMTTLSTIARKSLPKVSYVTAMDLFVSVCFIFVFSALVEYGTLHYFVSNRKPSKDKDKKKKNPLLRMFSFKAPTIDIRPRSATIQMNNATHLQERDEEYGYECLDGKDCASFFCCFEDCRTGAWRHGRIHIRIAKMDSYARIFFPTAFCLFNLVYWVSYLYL
# T1 sequence (P47869 29-451): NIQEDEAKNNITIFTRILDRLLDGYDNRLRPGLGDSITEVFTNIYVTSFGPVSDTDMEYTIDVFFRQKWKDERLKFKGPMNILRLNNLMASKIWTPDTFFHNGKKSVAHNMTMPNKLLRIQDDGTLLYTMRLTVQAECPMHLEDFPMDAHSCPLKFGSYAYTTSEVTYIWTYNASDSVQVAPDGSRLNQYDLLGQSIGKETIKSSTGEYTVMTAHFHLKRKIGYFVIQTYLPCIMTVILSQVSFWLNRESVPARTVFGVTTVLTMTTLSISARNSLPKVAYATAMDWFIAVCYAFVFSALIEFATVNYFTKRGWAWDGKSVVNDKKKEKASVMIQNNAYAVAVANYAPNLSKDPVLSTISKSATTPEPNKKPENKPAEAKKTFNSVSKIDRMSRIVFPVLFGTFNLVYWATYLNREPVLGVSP
# T1 sequence (P28472 26-473 partner): as the sequence (P28472 26-473 partner) above
# T1 sequence (P18507 40-475): as the sequence (P18507 40-475) above
SMILES,Number of Punished Crossings Mean ± S.E.M. (Swiss Webster (CFW) mice; 3 mg/kg PO),Number of Punished Crossings Mean ± S.E.M. (Swiss Webster (CFW) mice; 10 mg/kg PO),Number of Punished Crossings Mean ± S.E.M. (Swiss Webster (CFW) mice; 30 mg/kg PO),Number of Shocks Mean ± S.E.M. (Wistar rats; 3 mg/kg PO),Number of Shocks Mean ± S.E.M. (Wistar rats; 10 mg/kg PO),Number of Shocks Mean ± S.E.M. (Wistar rats; 30 mg/kg PO),activation at 0.1 µM [1] [%],activation at 0.1 µM [2] [%],Percentage of potentiation alpha2 [1],Percentage of potentiation alpha1 [2]
"Cc1ccn(Cc2c(-c3ccc(Cl)cc3)nc3ccccn23)c(=O)n1 [Compound 105, 1-((2-(4-chlorophenyl)imidazo[1,2-a]pyridin-3-yl)methyl)-4-methylpyrimidin-2(1H)-one]",6.7 ± 0.34,5.5 ± 0.60,5.6 ± 0.52,5.1 ± 0.6,5.8 ± 0.8,8.2 ± 1.8,10 to 50,10 to 50,–,–
"Cn1ncnc1Cc1c(-c2ccc(F)cc2)nc2ccc(F)cn12 [Compound 200, 6-fluoro-2-(4-fluorophenyl)-3-((1-methyl-1H-1,2,4-triazol-5-yl)methyl)imidazo[1,2-a]pyridine]",7.2 ± 0.52,8.6 ± 0.43,7.5 ± 0.39,8.4 ± 2.1,8.9 ± 2.3,9.5 ± 2.1,≥ 50,10 to 50,–,–
"CNC(=O)c1nccn1Cc1c(-c2ccc(Cl)cc2)nc2ccccn12 [Compound 77, 1-((2-(4-chlorophenyl)H-imidazo[1,2-a]pyridin-3-yl)methyl)-N-methyl-1H-imidazole-2-carboxamide]",4.3 ± 0.26,4.6 ± 0.31,5.0 ± 0.37,–,–,–,–,–,+ (percentage of potentiation is greater than or equal to 10% but less than 50% in the presence of 100 nM of the compound),0 (percentage of potentiation is between about 10% to about −10%)
"Clc1ccc(-c2nc3ccccn3c2Cc2ncn[nH]2)cc1 [Compound 211, 3-((1H-1,2,4-triazol-5-yl)methyl)-2-(4-chlorophenyl)imidazo[1,2-a]pyridine]",7.8 ± 0.59,8.6 ± 0.85,8.9 ± 0.57,3.9 ± 0.5,5.3 ± 0.8,5.0 ± 1.1,≥ 50,10 to 50,–,–
"Clc1ccc(-c2nc3cccnn3c2Cn2cncn2)cc1 [Compound 32, 3-((1H-1,2,4-triazol-1-yl)methyl)-2-(4-chlorophenyl)imidazo[1,2-b]pyridazine]",6.6 ± 0.72,6.6 ± 0.67,5.7 ± 0.94,3.8 ± 0.6,3.8 ± 0.7,6.6 ± 2.3,10 to 50,10 to 50,–,–
"NC(=O)c1ncn(Cc2c(-c3ccc(Cl)cc3)nc3ccccn23)n1 [Compound 72, 1-((2-(4-chlorophenyl)imidazo[1,2-a]pyridin-3-yl)methyl)-1H-1,2,4-triazole-3-carboxamide]",5.8 ± 0.63,5.2 ± 0.47,4.8 ± 0.36,–,–,–,≥ 50,10 to 50,–,–
